Reference: patent publication US20260130395A1, “Water Dispersible Botanical Compositions” (Aquila Black Limited, priority 2021, published 2026)

Assay: Stability of cannabinoid compounds and Vitamin E components in Beverage 2 (AB Red) by LCMSMS
Type: physicochemical
Protocol: The stability of the plant-derived cannabinoid compounds and Vitamin E components of the beverage stored 8° C. and at room temperature (21-25° C.) were monitored, over a period of 570 days via Liquid Chromatography-tandem Mass Spectrometry [LCMSMS, AGilent 6590, C18, 3×50 mm, 2.7 m (Agilent InfinityLab Poroshell 120 EC-C18), Electrospray Ionization detector]. The LCMSMS was calibrated for 0-50 ng/ml cannabinoids with the same resin material used in the preparation of the concentrates. At each time period, 100 ml of beverage was diluted with 10 ml of methanol and injected into the LCMSMS for analysis.

CCCc1cc(O)c2c(c1)OC(C)(C)[C@@H]1CCC(C)=C[C@@H]21 [THCV, delta-9-tetrahydrocannabivarin]
Stability of Plant-Derived Cannabinoid Compounds in AB Red (stored at 8° C., 0 days): 3.22 µg/mL
Stability of Plant-Derived Cannabinoid Compounds in AB Red (stored at 8° C., 1 days): 3.19 µg/mL
Stability of Plant-Derived Cannabinoid Compounds in AB Red (stored at 8° C., 2 days): 3.17 µg/mL
Stability of Plant-Derived Cannabinoid Compounds in AB Red (stored at 8° C., 3 days): 3.20 µg/mL
Stability of Plant-Derived Cannabinoid Compounds in AB Red (stored at 8° C., 5 days): 3.24 µg/mL
Stability of Plant-Derived Cannabinoid Compounds in AB Red (stored at 8° C., 8 days): 3.17 µg/mL
Stability of Plant-Derived Cannabinoid Compounds in AB Red (stored at 8° C., 9 days): 3.14 µg/mL
Stability of Plant-Derived Cannabinoid Compounds in AB Red (stored at 8° C., 10 days): 3.14 µg/mL
Stability of Plant-Derived Cannabinoid Compounds in AB Red (stored at 8° C., 11 days): 3.24 µg/mL
Stability of Plant-Derived Cannabinoid Compounds in AB Red (stored at 8° C., 12 days): 3.25 µg/mL
Stability of Plant-Derived Cannabinoid Compounds in AB Red (stored at 8° C., 15 days): 3.19 µg/mL
Stability of Plant-Derived Cannabinoid Compounds in AB Red (stored at 8° C., 16 days): 3.25 µg/mL
Stability of Plant-Derived Cannabinoid Compounds in AB Red (stored at 8° C., 17 days): 3.12 µg/mL
Stability of Plant-Derived Cannabinoid Compounds in AB Red (stored at 8° C., 18 days): 3.17 µg/mL
Stability of Plant-Derived Cannabinoid Compounds in AB Red (stored at 8° C., 19 days): 3.19 µg/mL
Stability of Plant-Derived Cannabinoid Compounds in AB Red (stored at 8° C., 22 days): 3.22 µg/mL
Stability of Plant-Derived Cannabinoid Compounds in AB Red (stored at 8° C., 23 days): 3.25 µg/mL
Stability of Plant-Derived Cannabinoid Compounds in AB Red (stored at 8° C., 24 days): 3.15 µg/mL
Stability of Plant-Derived Cannabinoid Compounds in AB Red (stored at 8° C., 25 days): 3.25 µg/mL
Stability of Plant-Derived Cannabinoid Compounds in AB Red (stored at 8° C., 26 days): 3.13 µg/mL
Stability of Plant-Derived Cannabinoid Compounds in AB Red (stored at 8° C., 29 days): 3.22 µg/mL
Stability of Plant-Derived Cannabinoid Compounds in AB Red (stored at 8° C., 30 days): 3.20 µg/mL
Stability of Plant-Derived Cannabinoid Compounds in AB Red (stored at 8° C., 60 days): 3.11 µg/mL
Stability of Plant-Derived Cannabinoid Compounds in AB Red (stored at 8° C., 90 days): 3.10 µg/mL
Stability of Plant-Derived Cannabinoid Compounds in AB Red (stored at 8° C., 120 days): 3.10 µg/mL
Stability of Plant-Derived Cannabinoid Compounds in AB Red (stored at 8° C., 150 days): 3.15 µg/mL
Stability of Plant-Derived Cannabinoid Compounds in AB Red (stored at 8° C., 180 days): 3.10 µg/mL
Stability of Plant-Derived Cannabinoid Compounds in AB Red (stored at 8° C., 210 days): 3.15 µg/mL
Stability of Plant-Derived Cannabinoid Compounds in AB Red (stored at 8° C., 240 days): 3.08 µg/mL
Stability of Plant-Derived Cannabinoid Compounds in AB Red (stored at 8° C., 270 days): 3.15 µg/mL
Stability of Plant-Derived Cannabinoid Compounds in AB Red (stored at 8° C., 300 days): 3.15 µg/mL
Stability of Plant-Derived Cannabinoid Compounds in AB Red (stored at 8° C., 330 days): 3.15 µg/mL
Stability of Plant-Derived Cannabinoid Compounds in AB Red (stored at 8° C., 360 days): 3.08 µg/mL
Stability of Plant-Derived Cannabinoid Compounds in AB Red (stored at 8° C., 390 days): 3.08 µg/mL
Stability of Plant-Derived Cannabinoid Compounds in AB Red (stored at 8° C., 420 days): 3.13 µg/mL
Stability of Plant-Derived Cannabinoid Compounds in AB Red (stored at 8° C., 450 days): 3.08 µg/mL
Stability of Plant-Derived Cannabinoid Compounds in AB Red (stored at 8° C., 480 days): 3.05 µg/mL
Stability of Plant-Derived Cannabinoid Compounds in AB Red (stored at 8° C., 510 days): 2.95 µg/mL
Stability of Plant-Derived Cannabinoid Compounds in AB Red (stored at 8° C., 540 days): 2.99 µg/mL
Stability of Plant-Derived Cannabinoid Compounds in AB Red (stored at 8° C., 570 days): 2.95 µg/mL
Stability of Plant-Derived Cannabinoid Compounds in AB Red (stored at 21-25° C., 0 days): 3.22 µg/mL
Stability of Plant-Derived Cannabinoid Compounds in AB Red (stored at 21-25° C., 1 days): 3.13 µg/mL
Stability of Plant-Derived Cannabinoid Compounds in AB Red (stored at 21-25° C., 2 days): 3.20 µg/mL
Stability of Plant-Derived Cannabinoid Compounds in AB Red (stored at 21-25° C., 3 days): 3.25 µg/mL
Stability of Plant-Derived Cannabinoid Compounds in AB Red (stored at 21-25° C., 5 days): 3.25 µg/mL
Stability of Plant-Derived Cannabinoid Compounds in AB Red (stored at 21-25° C., 8 days): 3.19 µg/mL
Stability of Plant-Derived Cannabinoid Compounds in AB Red (stored at 21-25° C., 9 days): 3.17 µg/mL
Stability of Plant-Derived Cannabinoid Compounds in AB Red (stored at 21-25° C., 10 days): 3.09 µg/mL
Stability of Plant-Derived Cannabinoid Compounds in AB Red (stored at 21-25° C., 11 days): 3.24 µg/mL
Stability of Plant-Derived Cannabinoid Compounds in AB Red (stored at 21-25° C., 12 days): 3.24 µg/mL
Stability of Plant-Derived Cannabinoid Compounds in AB Red (stored at 21-25° C., 15 days): 3.20 µg/mL
Stability of Plant-Derived Cannabinoid Compounds in AB Red (stored at 21-25° C., 16 days): 3.20 µg/mL
Stability of Plant-Derived Cannabinoid Compounds in AB Red (stored at 21-25° C., 17 days): 3.11 µg/mL
Stability of Plant-Derived Cannabinoid Compounds in AB Red (stored at 21-25° C., 18 days): 3.19 µg/mL
Stability of Plant-Derived Cannabinoid Compounds in AB Red (stored at 21-25° C., 19 days): 3.19 µg/mL
Stability of Plant-Derived Cannabinoid Compounds in AB Red (stored at 21-25° C., 22 days): 3.18 µg/mL
Stability of Plant-Derived Cannabinoid Compounds in AB Red (stored at 21-25° C., 23 days): 3.23 µg/mL
Stability of Plant-Derived Cannabinoid Compounds in AB Red (stored at 21-25° C., 24 days): 3.25 µg/mL
Stability of Plant-Derived Cannabinoid Compounds in AB Red (stored at 21-25° C., 25 days): 3.24 µg/mL
Stability of Plant-Derived Cannabinoid Compounds in AB Red (stored at 21-25° C., 26 days): 3.11 µg/mL
Stability of Plant-Derived Cannabinoid Compounds in AB Red (stored at 21-25° C., 29 days): 3.15 µg/mL
Stability of Plant-Derived Cannabinoid Compounds in AB Red (stored at 21-25° C., 30 days): 3.15 µg/mL
Stability of Plant-Derived Cannabinoid Compounds in AB Red (stored at 21-25° C., 60 days): 3.18 µg/mL
Stability of Plant-Derived Cannabinoid Compounds in AB Red (stored at 21-25° C., 90 days): 3.05 µg/mL
Stability of Plant-Derived Cannabinoid Compounds in AB Red (stored at 21-25° C., 120 days): 3.09 µg/mL
Stability of Plant-Derived Cannabinoid Compounds in AB Red (stored at 21-25° C., 150 days): 3.17 µg/mL
Stability of Plant-Derived Cannabinoid Compounds in AB Red (stored at 21-25° C., 180 days): 3.10 µg/mL
Stability of Plant-Derived Cannabinoid Compounds in AB Red (stored at 21-25° C., 210 days): 3.03 µg/mL
Stability of Plant-Derived Cannabinoid Compounds in AB Red (stored at 21-25° C., 240 days): 3.18 µg/mL
Stability of Plant-Derived Cannabinoid Compounds in AB Red (stored at 21-25° C., 270 days): 3.04 µg/mL
Stability of Plant-Derived Cannabinoid Compounds in AB Red (stored at 21-25° C., 300 days): 3.14 µg/mL
Stability of Plant-Derived Cannabinoid Compounds in AB Red (stored at 21-25° C., 330 days): 3.19 µg/mL
Stability of Plant-Derived Cannabinoid Compounds in AB Red (stored at 21-25° C., 360 days): 3.05 µg/mL
Stability of Plant-Derived Cannabinoid Compounds in AB Red (stored at 21-25° C., 390 days): 3.04 µg/mL
Stability of Plant-Derived Cannabinoid Compounds in AB Red (stored at 21-25° C., 420 days): 3.10 µg/mL
Stability of Plant-Derived Cannabinoid Compounds in AB Red (stored at 21-25° C., 450 days): 3.14 µg/mL
Stability of Plant-Derived Cannabinoid Compounds in AB Red (stored at 21-25° C., 480 days): 3.04 µg/mL
Stability of Plant-Derived Cannabinoid Compounds in AB Red (stored at 21-25° C., 510 days): 3.01 µg/mL
Stability of Plant-Derived Cannabinoid Compounds in AB Red (stored at 21-25° C., 540 days): 2.95 µg/mL
Stability of Plant-Derived Cannabinoid Compounds in AB Red (stored at 21-25° C., 570 days): 2.98 µg/mL
